Results on 2 compounds are retold here after patent US7018643B2, “Pesticide delivery system” (Engelhard Corporation, priority 2000, dated 2006).

This assay deals with Erwinia amylovora (Ea) strain AFRS-581. Nature of the assay: Fireblight blossom infection on potted 'Rome' apple trees inoculated with Erwinia amylovora, greenhouse. The assay is classed as in vivo. To be noted: 'Rome' apple blossoms sprayed with 10^8 CFU Ea, treated about 1 hour later, scored after 7 days; PM 3% weight by volume; copper hydroxide 0.5 g/l; Blight Ban 1 g/l; streptomycin 0.5 g/l. The procedure: The enhanced effect of reducing fireblight in apple trees with the pesticide delivery system of the present invention containing bactericides is examined and compared to conventional pesticides.
Experiments are conducted on potted trees of ‘Rome’ apple in a naturally illuminated greenhouse. When about 80% of the blooms are open, open blossoms are sprayed to drip with 10^8 CFU of Erwinia amylovora (Ea) strain AFRS-581. After drying for about 1 hour, each the following treatments are applied to six of the infected trees. Slurries containing particulate materials (PM) (3% weight by volume), water and copper hydroxide at 0.5 g/l (Copper Count N from Mineral Research Development Co., Charlotte, N.C., a bactericide), Blight Ban at 1 g/l (from Plant Health Technologies, Boise, Id., a microbial bactericide), or streptomycin at 0.5 g/l (from Novartis Crop Protection Inc., Greensboro, N.C., an antibiotic); and slurries containing PM (3% weight by volume) and water; and mixtures of water and copper hydroxide at 0.5 g/l, Blight Ban at 1 g/l, or streptomycin at 0.5 g/l are applied to the apple trees. […]
After 7 days, blossom necrosis symptoms are present and recorded. Disease data are expressed as percentage of blossom infect rate.

For `[Cu+2].[OH-].[OH-]` [copper hydroxide], the “% Blossom Infection” value was determined as 87.1%.

As to `[H]/N=C(/N)N[C@H]1[C@H](O)[C@@H](O)[C@H](O[C@@H]2O[C@@H](C)[C@](O)(C=O)[C@H]2O[C@@H]2O[C@@H](CO)[C@H](O)[C@@H](O)[C@@H]2NC)[C@@H](N/C(N)=N\[H])[C@@H]1O` [streptomycin], the “% Blossom Infection” value is reported as 83.3%.
